Assay results reported in patent publication US20080021026A1, “BENZOTHIOPHENE INHIBITORS OF RHO KINASE” (priority 2006, published 2008).
Where two headings read alike, the source gives them in different places.

Columns and labels:
[1] = biological target: T1, recombinant N-terminal GST-tagged human Rho kinase 2 (ROCK2, amino acids 1-552) (Homo sapiens, UniProt O75116); assay: In vitro Rho kinase assay (luciferase-based ATP consumption), ROCK2; type: biochemical
T1 construct: ROCK2, amino acids 1-552; purchased Invitrogen Inc. PV3759
T1 sequence (O75116 1-552): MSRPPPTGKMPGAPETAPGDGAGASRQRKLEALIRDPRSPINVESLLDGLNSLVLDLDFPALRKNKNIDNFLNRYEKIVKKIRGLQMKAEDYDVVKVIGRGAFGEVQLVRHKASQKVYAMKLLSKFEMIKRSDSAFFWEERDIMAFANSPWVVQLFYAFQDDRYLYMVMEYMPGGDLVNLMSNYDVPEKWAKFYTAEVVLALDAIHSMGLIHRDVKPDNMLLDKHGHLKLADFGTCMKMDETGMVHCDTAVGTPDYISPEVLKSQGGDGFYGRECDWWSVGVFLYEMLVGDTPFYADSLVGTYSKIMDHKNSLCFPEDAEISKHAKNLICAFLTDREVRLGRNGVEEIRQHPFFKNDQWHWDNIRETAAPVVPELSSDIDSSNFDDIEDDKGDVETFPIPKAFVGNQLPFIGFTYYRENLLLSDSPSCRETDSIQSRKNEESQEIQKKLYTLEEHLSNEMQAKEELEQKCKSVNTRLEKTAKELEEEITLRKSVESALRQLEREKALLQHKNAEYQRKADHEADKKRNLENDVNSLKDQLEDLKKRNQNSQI
Method in brief: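 GST-ROCK2 (aa 1-552, 0.82 μg/ml) with 100 μg/ml S6 peptide and 3 µM ATP in Tris pH 7.5 buffer with MgCl2/CaCl2/EGTA/BSA, compound added just after reaction start, 2 h at 30 °C. Remaining ATP read by luciferase luminescence. Efficacy expressed as percentage of H-1152P positive control.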

[2] = biological target: T2, recombinant N-terminal GST-tagged human Rho kinase 1 (ROCK1, amino acids 1-535) (Homo sapiens, UniProt Q13464); assay: In vitro Rho kinase assay (luciferase-based ATP consumption), ROCK1; type: biochemical; details: recombinant GST-tagged human ROCK1, luciferase-based ATP consumption; read-out: ROCK1 IC50
T2 construct: ROCK1, amino acids 1-535; purchased Invitrogen Inc. PV-3691
T2 sequence (Q13464 1-535): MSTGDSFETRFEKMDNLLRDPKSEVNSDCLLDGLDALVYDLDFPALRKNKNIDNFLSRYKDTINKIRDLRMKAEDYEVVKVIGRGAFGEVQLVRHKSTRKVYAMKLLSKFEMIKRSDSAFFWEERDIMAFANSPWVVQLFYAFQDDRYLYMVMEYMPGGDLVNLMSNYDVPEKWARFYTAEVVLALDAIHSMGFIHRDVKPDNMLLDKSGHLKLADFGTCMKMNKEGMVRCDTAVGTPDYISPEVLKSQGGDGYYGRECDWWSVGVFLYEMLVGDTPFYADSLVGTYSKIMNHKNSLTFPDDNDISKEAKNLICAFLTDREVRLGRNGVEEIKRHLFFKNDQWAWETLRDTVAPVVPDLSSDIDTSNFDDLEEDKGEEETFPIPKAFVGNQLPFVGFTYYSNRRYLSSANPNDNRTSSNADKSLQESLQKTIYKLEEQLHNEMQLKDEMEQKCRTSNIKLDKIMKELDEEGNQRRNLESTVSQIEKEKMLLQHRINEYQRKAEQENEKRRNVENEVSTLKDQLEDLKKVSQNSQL
Protocol: In Vitro Rho Kinase Assay
Rho kinase biochemical assays described below depend on firefly luciferase-based, indirect measurement of total ATP consumption by the kinase following incubation with substrate and ATP. 25 μl of Rho kinase assay buffer (20 mM Tris-HCL [pH 7.5], 1 mM MgCl2, 0.4 mM CaCl2, 0.15 mM EGTA, 0.1 mg/ml bovine serum albumin) containing 0.82 μg/ml of recombinant N-terminal GST-tagged human Rho kinase 1 (ROCK1, amino acids 1-535, Invitrogen Inc., cat. #PV-3691) or recombinant N-terminal GST-tagged human Rho kinase 2 (ROCK2, amino acids 1-552, Invitrogen Inc., cat #PV3759), 100 μg/ml S6 peptide substrate (related to amino acids 218-249 of the human 40S ribosomal protein S6, and suitable for ROCK1 or ROCK2, e.g. Upstate/Millipore Inc., cat #12-420), and 3 µM ATP are dispensed to wells of a 384 multi-well opaque plate. The plate is centrifuged for 30 seconds at approximately 200×g. 240 nl of test compound in DMSO is dispensed to each well by passive pin transfer. The lag phase of this in vitro kinase reaction permits addition of compounds soon after the reaction initiates. The reaction is allowed to incubate at 30° C. for 2 hours. The assay plates are sealed and maintained in a humidified environment. After 2 hours, 25 μl of easylite protein kinase assay reagent (Perkin-Elmer, Inc.) is dispensed. After an additional 10 minute incubation at room temperature (about 22° C.), luminescence activity is measured on a Molecular Devices Analyst multi-mode plate reader or other suitable plate reader. Kinase inhibition results in less ATP consumption, and therefore increased luminescence signal. Negative control activity is measured with DMSO lacking any test compound. The positive control is 2-methyl-1-(4-methylisoquinolin-5-ylsulfonyl)perhydro-1,4-diazepine hydrochloride (aka H-1152P, HCl salt). Efficacy is measured as a percentage of positive control activity. […] The designation NT means the cited example was not tested.

[3] = recombinant GST-tagged human ROCK2, luciferase-based ATP consumption, read-out: ROCK2 IC50

Row | SMILES | IC50 [1, 3] | IC50 [2] | IC50 ([1]; ROCK2 IC50, recombinant GST-tagged human ROCK2, luciferase-based ATP consumption)
1 | Cc1c(-c2ccnc(N)n2)sc2ccc(Cl)cc12 [Example 1, 4-(5-Chloro-3-methylbenzo[b]thiophen-2-yl)pyrimidin-2-amine] | < 5 µM | < 5 µM | 
2 | Nc1nccc(-c2cc3ccccc3s2)n1 [Example 2, 4-(Benzo[b]thiophen-2-yl)pyrimidin-2-amine] | < 5 µM | < 5 µM | 
3 | Cc1c(-c2ccnc(N)n2)oc2ccccc12 [Example 3, 4-(3-Methylbenzofuran-2-yl)pyrimidin-2-amine] | < 5 µM | < 5 µM | 
4 | Cc1c(-c2ccncc2)sc2ccc(Cl)cc12 [Example 4, 4-(5-Chloro-3-methylbenzo[b]thiophen-2-yl)pyridine] | > 5 µM | > 5 µM | 
5 | Cc1c(-c2c[nH]c3ncccc23)sc2ccc(Cl)cc12 [Example 5, 3-(5-Chloro-3-methylbenzo[b]thiophen-2-yl)-1H-pyrrolo[2,3-b]pyridine] | > 5 µM | > 5 µM | 
6 | Cc1c(-c2ccnc3[nH]ccc23)sc2ccc(Cl)cc12 [Example 6, 4-(5-Chloro-3-methylbenzo[b]thiophen-2-yl)-1H-pyrrolo[2,3-b]pyridine] | > 5 µM | > 5 µM | 
7 | Cc1c(-c2ccnc(N)c2)sc2ccc(Cl)cc12 [Example 7, 4-(5-Chloro-3-methylbenzo[b]thiophen-2-yl)pyridin-2-amine] | > 5 µM | > 5 µM | 
8 | Cc1c(-c2cc(N)ncn2)sc2ccc(Cl)cc12 [Example 8, 6-(5-Chloro-3-methylbenzo[b]thiophen-2-yl)pyrimidin-4-amine] | > 5 µM | > 5 µM | 
9 | Cc1c(-c2cc(N)nc(N)n2)sc2ccc(Cl)cc12 [Example 9, 6-(5-Chloro-3-methylbenzo[b]thiophen-2-yl)pyrimidine-2,4-diamine] | > 5 µM | > 5 µM | 
10 | Cc1c(-c2ccc3[nH]ncc3c2)sc2ccc(Cl)cc12 [Example 10, 5-(5-Chloro-3-methylbenzo[b]thiophen-2-yl)-1H-indazole] | < 5 µM | < 5 µM | 
11 | Cc1c(-c2cccnc2N)sc2ccc(Cl)cc12 [Example 11, 3-(5-Chloro-3-methylbenzo[b]thiophen-2-yl)pyridin-2-amine] | > 5 µM | > 5 µM | 
12 | Cc1c(-c2nccnc2N)sc2ccc(Cl)cc12 [Example 12, 3-(5-Chloro-3-methylbenzo[b]thiophen-2-yl)pyrazin-2-amine] | > 5 µM | > 5 µM | 
13 | Cc1c(-c2ccnc(N)n2)sc2ccc(Br)cc12 [Example 13, 4-(5-Bromo-3-methylbenzo[b]thiophen-2-yl)pyrimidin-2-amine] | < 5 µM | < 5 µM | 
14 | Cc1c(-c2ccnc(N)n2)sc2ccccc12 [Example 14, 4-(3-Methylbenzo[b]thiophen-2-yl)pyrimidin-2-amine] | < 5 µM | < 5 µM | 
15 | Nc1nccc(-c2sc3ccccc3c2Br)n1 [Example 15, 4-(3-Bromobenzo[b]thiophen-2-yl)pyrimidin-2-amine] | < 5 µM | < 5 µM | 
16 | CCc1c(-c2ccnc(N)n2)sc2ccc(Cl)cc12 [Example 16, 4-(5-Chloro-3-ethylbenzo[b]thiophen-2-yl)pyrimidin-2-amine] | < 5 µM | < 5 µM | 
17 | Nc1nccc(-c2sc3ccc(Cl)cc3c2-c2ccccc2)n1 [Example 17, 4-(5-Chloro-3-phenylbenzo[b]thiophen-2-yl)pyrimidin-2-amine] | > 5 µM | > 5 µM | 
18 | Cc1c(-c2ccnc(N)n2)sc2ccc(CNC(=O)C(NC(=O)OC(C)(C)C)C(C)C)cc12 (stereo not drawn) [Example 293, CC(C)[C](NC(═O)OC(C)(C)C)C(═O)NCc1ccc2sc(c(C)c2c1)-c3ccnc(N)n3] |  | > 5 µM | 
19 | Cc1c(-c2ccnc(N)n2)sc2ccc(C(=O)N(C)Cc3cccc4ccccc34)cc12 [Example 553, CN(Cc1cccc2ccccc12)C(═O)c3ccc4sc(c(C)c4c3)-c5ccnc(N)n5] | > 5 µM |  | 

Row | SMILES | IC50 [1, 3] | IC50 [2] | IC50 ([1]; ROCK2 IC50, recombinant GST-tagged human ROCK2, luciferase-based ATP consumption)
20 | Cc1ccc(Cl)cc1N1CCN(C(=O)c2ccc3sc(-c4ccnc(N)n4)c(C)c3c2)CC1 [Example 554, Cc1ccc(Cl)cc1N2CCN(CC2)C(═O)c3ccc4sc(c(C)c4c3)-c5ccnc(N)n5] | < 5 µM |  | 
21 | COc1cc(CN(C)C(=O)c2ccc3sc(-c4ccnc(N)n4)c(C)c3c2)cc(OC)c1OC [Example 555, COc1cc(CN(C)C(═O)c2ccc3sc(c(C)c3c2)-c4ccnc(N)n4)cc(OC)c1OC] | > 5 µM |  | 
22 | Cc1c(-c2ccnc(N)n2)sc2ccc(C(=O)N(CCc3ccccc3)Cc3ccccc3)cc12 [Example 556, Cc1c(sc2ccc(cc12)C(═O)N(CCc3ccccc3)Cc4ccccc4)-c5ccnc(N)n5] | > 5 µM |  | 
23 | Cc1c(-c2ccnc(N)n2)sc2ccc(C(=O)N(C)C(Cc3ccccc3)c3ccccc3)cc12 (stereo not drawn) [Example 557, CN(C(Cc1ccccc1)c2ccccc2)C(═O)c3ccc4sc(c(C)c4c3)-c5ccnc(N)n5] | > 5 µM |  | 
24 | Cc1c(-c2ccnc(N)n2)sc2ccc(C(=O)N3CCC(O)(c4ccc(Cl)cc4)CC3)cc12 [Example 558, Cc1c(sc2ccc(cc12)C(═O)N3CCC(O)(CC3)c4ccc(Cl)cc4)-c5ccnc(N)n5] | > 5 µM |  | 
25 | C#CCN(Cc1ccc(Cl)cc1Cl)C(=O)c1ccc2sc(-c3ccnc(N)n3)c(C)c2c1 [Example 559, Cc1c(sc2ccc(cc12)C(═O)N(CC#C)Cc3ccc(Cl)cc3Cl)-c4ccnc(N)n4] |  |  | > 5 µM
26 | CCN(C(=O)c1ccc2sc(-c3ccnc(N)n3)c(C)c2c1)C(Cc1ccccc1)c1ccco1 (stereo not drawn) [Example 560, CCN(C(Cc1ccccc1)c2ccco2)C(═O)c3ccc4sc(c(C)c4c3)-c5ccnc(N)n5] | < 5 µM |  | 
27 | Cc1c(-c2ccnc(N)n2)sc2ccc(C(=O)N3CCN(C(=O)OC(C)(C)C)C[C@H]3CO)cc12 [Example 561, Cc1c(sc2ccc(cc12)C(═O)N3CCN(C[C@H]3CO)C(═O)OC(C)(C)C)-c4ccnc(N)n4] | > 5 µM |  | 
28 | Cc1c(-c2ccnc(N)n2)sc2ccc(C(=O)N3CCN(c4ccc(C(C)(C)C)cc4)CC3)cc12 [Example 562, Cc1c(sc2ccc(cc12)C(═O)N3CCN(CC3)c4ccc(cc4)C(C)(C)C)-c5ccnc(N)n5] | < 5 µM |  | 
29 | Cc1c(-c2ccnc(N)n2)sc2ccc(C(=O)N3CCN(Cc4ccc5c(c4)OCO5)CC3)cc12 [Example 563, Cc1c(sc2ccc(cc12)C(═O)N3CCN(CC3)Cc4ccc5OCOc5c4)-c6ccnc(N)n6] | < 5 µM |  | 
30 | COc1cc2c(cc1OC)CN(C(=O)c1ccc3sc(-c4ccnc(N)n4)c(C)c3c1)CC2 [Example 564, COc1cc2CCN(Cc2cc1OC)C(═O)c3ccc4sc(c(C)c4c3)-c5ccnc(N)n5] | < 5 µM |  | 
31 | Cc1c(-c2ccnc(N)n2)sc2ccc(C(=O)N3CCN(c4ccc(C(F)(F)F)cc4)CC3)cc12 [Example 565, Cc1c(sc2ccc(cc12)C(═O)N3CCN(CC3)c4ccc(cc4)C(F)(F)F)-c5ccnc(N)n5] | > 5 µM |  | 
32 | Cc1c(-c2ccnc(N)n2)sc2ccc(C(=O)N3CCN(c4cccc(C(F)(F)F)c4)CC3)cc12 [Example 566, Cc1c(sc2ccc(cc12)C(═O)N3CCN(CC3)c4cccc(c4)C(F)(F)F)-c5ccnc(N)n5] | > 5 µM |  | 
33 | Cc1c(-c2ccnc(N)n2)sc2ccc(C(=O)N3CCN(c4ccc(Cl)c(Cl)c4)CC3)cc12 [Example 567, Cc1c(sc2ccc(cc12)C(═O)N3CCN(CC3)c4ccc(Cl)c(Cl)c4)-c5ccnc(N)n5] | > 5 µM |  | 
34 | Cc1c(-c2ccnc(N)n2)sc2ccc(C(=O)N3CCN(c4ccc(C(F)(F)F)cn4)CC3)cc12 [Example 568, Cc1c(sc2ccc(cc12)C(═O)N3CCN(CC3)c4ccc(cn4)C(F)(F)F)-c5ccnc(N)n5] | > 5 µM |  | 
35 | Cc1c(-c2ccnc(N)n2)sc2ccc(C(=O)N3CCN(c4ccccc4Cl)CC3)cc12 [Example 569, Cc1c(sc2ccc(cc12)C(═O)N3CCN(CC3)c4ccccc4Cl)-c5ccnc(N)n5] | > 5 µM |  | 
36 | COc1ccc(N2CCN(C(=O)c3ccc4sc(-c5ccnc(N)n5)c(C)c4c3)CC2)cc1OC [Example 570, COc1ccc(cc1OC)N2CCN(CC2)C(═O)c3ccc4sc(c(C)c4c3)-c5ccnc(N)n5] | > 5 µM |  | 
37 | Cc1c(-c2ccnc(N)n2)sc2ccc(C(=O)N3CCCC(c4ccc(C(F)(F)F)cc4)C3)cc12 (stereo not drawn) [Example 571, Cc1c(sc2ccc(cc12)C(═O)N3CCCC(C3)c4ccc(cc4)C(F)(F)F)-c5ccnc(N)n5] | > 5 µM |  | 
